# Laboratory results: US9284321B2, “Piperazino[1,2-a]indol-1-ones and [1,4]diazepino[1,2-a]indol-1-one” (Hoffmann-La Roche Inc., priority 2012, dated 2016)
# Columns and labels:
# [1] = test system: human embryonic stem cell derived neural stem cells (NSCs); test: Neural Stem Cell Proliferation Assay (neurogenesis assay, ATP levels by CellTiterGlo); format: cell-based; settings: 96 h, compound concentration at which 150% activity of control (100%) is reached, NSC proliferation by ATP level after 4 days incubation, dose response 8 μM to 8 nM
# Experimental: Neurogenic properties of small molecules are determined based on the proliferation of human embryonic stem cell derived neural stem cells (NSCs) which were derived via a dual smad inhibition as previously described (Chambers, S. M., et al., Highly efficient neural conversion of human ES and iPS cells by dual inhibition of SMAD signaling, Nature biotechnology, 2009. 27(3): p. 275-80.)
# Compounds respond is measured by the increase in cells based on ATP levels
# (Promega:CellTiterGlo®) after an incubation period of 4 days.
# NSCs are thawed and expanded over 3 passages. On the 14th day, NSCs are seeded in Polyornithin/Laminin coated 384 well plates at a cell density of 21′000 cells/cm^2 in a media volume of 38 μl.
# 4 hours after cell seeding, compound solutions are added at a volume of 2 μl. Stock solutions of the compounds (water, 5% DMSO) are diluted to obtain a dose response (11 points, dilution factor is 2), ranging from 8 μM to 8 nM. Controls are run to consistently determine the neurogenic properties of the cells:
# Negative (neutral) control is cell culture Media (final DMSO concentration: 0.25%).
# • 1. cell culture Media+100 ng/ml FGF2 (final DMSO concentration: 0.1%) • 2. cell culture Media+20 ng/ml EGF (final DMSO concentration: 0.1%) • 3. cell culture Media+100 ng/ml Wnt3a (final DMSO concentration: 0.1%)
# After 4 days incubation at 37° C., 5% CO2, the amount of ATP per well is quantified. The ATP concentration is proportional to the cell number. ATP is quantified by using the Promega CellTiterGlo® kit. The CellTiterGlo® reagents contain a cell lysis buffer, a thermo stable luciferase (UltraGlo™ recombinant luciferase), magnesium and luciferin. Luciferin reacts with ATP producing oxyluciferin, AMP and light. The luminescence signal is proportional to the ATP content.
# The value of negative (neutral) control is determined for each assay plate by taking the average of 16 negative control wells. The neurogenic compound response is calculated for each compound as (compound/Negative Control)*100.
# The values of EC150 from the dose response curve are determined for each test compound. The EC150 is the compound concentration at which 150% activity of control (100%) is reached.
melting point [°C],Compound,EC (150% of control) [1] [µM]
239.5,"O=C1NCCCn2c1cc1cc(F)cc(-c3ccc(F)cc3)c12 [Example 17, 9-Fluoro-7-(4-fluoro-phenyl)-2,3,4,5-tetrahydro-[1,4]diazepino[1,2-a]indol-1-one]",0.05
287,"Cc1ccc(-c2cc(C#N)cc3c(C)c4n(c23)CCCNC4=O)cc1 [Example 288, 11-Methyl-7-(4-methylphenyl)-1-oxo-2,3,4,5-tetrahydro-[1,4]diazepino[1,2-a]indole-9-carbonitrile]",0.04
267,"C[C@@H]1CNC(=O)c2cc3cc(F)cc(-c4ccc(F)c(F)c4)c3n21 [Example 10, (R)-6-(3,4-Difluoro-phenyl)-8-fluoro-4-methyl-3,4-dihydro-2H-pyrazino[1,2-a]indol-1-one]",0.22
239,"Cc1c2n(c3c(-c4cccc(F)c4)cc(Cl)cc13)CCNC2=O [Example 96, 8-Chloro-6-(3-fluoro-phenyl)-10-methyl-3,4-dihydro-2H-pyrazino[1,2-a]indol-1-one]",0.15
194.5,"Cc1c2n(c3c(-c4ccc(C(C)C)cc4)cc(Cl)cc13)CCNC2=O [Example 106, 8-Chloro-6-(4-isopropyl-phenyl)-10-methyl-3,4-dihydro-2H-pyrazino[1,2-a]indol-1-one]",0.05
282.5,"COc1ccc(-c2cc(Cl)cc3cc4n(c23)CCNC4=O)cc1 [Example 52, 8-Chloro-6-(4-methoxy-phenyl)-3,4-dihydro-2H-pyrazino[1,2-a]indol-1-one]",0.022
227,"Cc1c2n(c3c(-c4ccc(N(C)C)cc4)cc(Cl)cc13)CCNC2=O [Example 113, 8-Chloro-6-(4-dimethylamino-phenyl)-10-methyl-3,4-dihydro-2H-pyrazino[1,2-a]indol-1-one]",0.01
217.5,"N#Cc1cc(-c2ccc(Cl)cc2F)c2c(c1)cc1n2CCCNC1=O [Example 219, 7-(4-Chloro-2-fluorophenyl)-1-oxo-2,3,4,5-tetrahydro-[1,4]diazepino[1,2-a]indole-9-carbonitrile]",0.08
311.5,"N#Cc1cc(-c2ccc(OC(F)(F)F)cc2)c2c(c1)cc1n2CCNC1=O [Example 190, 1-Oxo-6-[4-(trifluoromethoxy)phenyl]-3,4-dihydro-2H-pyrazino[1,2-a]indole-8-carbonitrile]",0.037
205.5,"Cc1c2n(c3c(-c4ccc(F)c(F)c4F)cc(Cl)cc13)CCNC2=O [Example 153, 8-Chloro-10-methyl-6-(2,3,4-trifluoro-phenyl)-3,4-dihydro-2H-pyrazino[1,2-a]indol-1-one]",0.029
297.5,"N#Cc1cc(-c2ccc(F)cc2)c2c(c1)cc1n2CCNC1=O [Example 78, 6-(4-Fluoro-phenyl)-1-oxo-1,2,3,4-tetrahydro-pyrazino[1,2-a]indole-8-carbonitrile]",0.012
182,"Cc1c2n(c3c(-c4cccc(Cl)c4)cc(F)cc13)CCNC2=O [Example 128, 6-(3-Chloro-phenyl)-8-fluoro-10-methyl-3,4-dihydro-2H-pyrazino[1,2-a]indol-1-one]",0.22
216,"COc1cc(-c2ccc(F)c(F)c2)c2c(c1)cc1n2CCNC1=O [Example 212, 6-(3,4-Difluorophenyl)-8-methoxy-3,4-dihydro-2H-pyrazino[1,2-a]indol-1-one]",1.24
271,"COc1ncc(-c2cc(F)cc3c(C)c4n(c23)CCNC4=O)cn1 [Example 156, 8-Fluoro-6-(2-methoxy-pyrimidin-5-yl)-10-methyl-3,4-dihydro-2H-pyrazino[1,2-a]indol-1-one]",0.11
182,"Cc1c2n(c3c(-c4ccc(F)cc4)cc(F)cc13)CCNC2=O [Example 74, 8-Fluoro-6-(4-fluoro-phenyl)-10-methyl-3,4-dihydro-2H-pyrazino[1,2-a]indol-1-one]",0.072
250,"Cc1c2n(c3c(-c4cc(F)c(F)c(F)c4)cc(F)cc13)CCNC2=O [Example 159, 8-Fluoro-10-methyl-6-(3,4,5-trifluoro-phenyl)-3,4-dihydro-2H-pyrazino[1,2-a]indol-1-one]",0.22
206,"Cc1c2n(c3c(-c4ccc5c(c4)OCO5)cc(F)cc13)CCNC2=O [Example 123, 6-Benzo[1,3]dioxol-5-yl-8-fluoro-10-methyl-3,4-dihydro-2H-pyrazino[1,2-a]indol-1-one]",0.031
271,"Cc1c2n(c3c(-c4ccc(Cl)cc4)cc(Cl)cc13)CCCNC2=O [Example 69, 9-Chloro-7-(4-chloro-phenyl)-11-methyl-2,3,4,5-tetrahydro-[1,4]diazepino[1,2-a]indol-1-one]",0.061
304.5,"N#Cc1cc(-c2cc(F)c(F)c(F)c2)c2c(c1)cc1n2CCNC1=O [Example 189, 1-Oxo-6-(3,4,5-trifluorophenyl)-3,4-dihydro-2H-pyrazino[1,2-a]indole-8-carbonitrile]",0.22
240,"Cc1c2n(c3c(-c4ccc(Cl)c(C(F)(F)F)c4)cc(F)cc13)CCNC2=O [Example 150, 6-(4-Chloro-3-trifluoromethyl-phenyl)-8-fluoro-10-methyl-3,4-dihydro-2H-pyrazino[1,2-a]indol-1-one]",0.61
246,"COc1cc(-c2ccc(Cl)cc2)c2c(c1)cc1n2CCNC1=O [Example 211, 6-(4-Chlorophenyl)-8-methoxy-3,4-dihydro-2H-pyrazino[1,2-a]indol-1-one]",1.54
347,"N#Cc1cc(-c2ccc(Cl)c(C(F)(F)F)c2)c2c(c1)cc1n2CCNC1=O [Example 204, 6-[4-Chloro-3-(trifluoromethyl)phenyl]-1-oxo-3,4-dihydro-2H-pyrazino[1,2-a]indole-8-carbonitrile]",1.28
253,"N#Cc1cc(-c2ccc(Cl)cc2Cl)c2c(c1)cc1n2CCCNC1=O [Example 236, 7-(2,4-Dichlorophenyl)-1-oxo-2,3,4,5-tetrahydro-[1,4]diazepino[1,2-a]indole-9-carbonitrile]",0.13
249,"Cc1c2n(c3c(-c4ccc(C#N)s4)cc(F)cc13)CCNC2=O [Example 185, 5-(8-Fluoro-10-methyl-1-oxo-3,4-dihydro-2H-pyrazino[1,2-a]indol-6-yl)thiophene-2-carbonitrile]",0.11
185,"Cc1c2n(c3c(-c4ccc(Cl)s4)cc(F)cc13)CCNC2=O [Example 183, 6-(5-Chloro-thiophen-2-yl)-8-fluoro-10-methyl-3,4-dihydro-2H-pyrazino[1,2-a]indol-1-one]",0.19
303,"Cc1c2n(c3c(-c4cc(F)cc(F)c4)cc(C#N)cc13)CCNC2=O [Example 261, 6-(3,5-Difluorophenyl)-10-methyl-1-oxo-3,4-dihydro-2H-pyrazino[1,2-a]indole-8-carbonitrile]",0.091
313.5,"Cc1c2n(c3c(-c4ccc([N+](=O)[O-])cc4)cc(Cl)cc13)CCNC2=O [Example 109, 8-Chloro-10-methyl-6-(4-nitro-phenyl)-3,4-dihydro-2H-pyrazino[1,2-a]indol-1-one]",0.007
217.5,"N#Cc1cc(-c2ccc(Cl)c(Cl)c2)c2c(c1)cc1n2CCCNC1=O [Example 249, 7-(3,4-Dichlorophenyl)-1-oxo-2,3,4,5-tetrahydro-[1,4]diazepino[1,2-a]indole-9-carbonitrile]",0.31
332,"Cc1c2n(c3c(-c4ccc(N)nc4)cc(C#N)cc13)CCNC2=O [Example 242, 6-(6-Aminopyridin-3-yl)-10-methyl-1-oxo-3,4-dihydro-2H-pyrazino[1,2-a]indole-8-carbonitrile]",0.68
257,"Cc1c2n(c3c(-c4ccc(Cl)cc4Cl)cc(C#N)cc13)CCCNC2=O [Example 206, 7-(2,4-Dichlorophenyl)-11-methyl-1-oxo-2,3,4,5-tetrahydro-[1,4]diazepino[1,2-a]indole-9-carbonitrile]",0.031
